Measured values taken from US8765769B2, “Ring-fused 4-aminopyrimidines and use thereof as stimulators of soluable guanylate cyclases” (Bayer Intellectual Property GmbH, priority 2010, dated 2014).

Tests used:
rabbit aorta rings = experiment: Vasorelaxant action in vitro (phenylephrine-contracted rabbit aorta rings); conditions: Oryctolagus cuniculus; concentration reducing the phenylephrine-induced contraction of rabbit aorta rings by 50%; DMSO 0.1%
Description: B-1. Vasorelaxant Action In Vitro
Rabbits are stunned by a blow to the neck and exsanguinated. The aorta is removed, freed from adhering tissue and divided into rings of width 1.5 mm, which are placed individually under prestress into 5 ml organ baths with carbogen-sparged Krebs-Henseleit solution at 37° C. having the following composition (each mM): sodium chloride 119; potassium chloride: 4.8; calcium chloride dihydrate: 1; magnesium sulfate heptahydrate: 1.4; potassium dihydrogenphosphate: 1.2; sodium hydrogencarbonate: 25; glucose: 10. The contractile force is determined with Statham UC2 cells, amplified and digitalized using A/D transducers (DAS-1802 HC, Keithley Instruments Munich), and recorded in parallel on linear recorders. To obtain a contraction, phenylephrine is added to the bath cumulatively in increasing concentration. After several control cycles, the substance to be studied is added in increasing dosage each time in every further run, and the magnitude of the contraction is compared with the magnitude of the contraction attained in the last preceding run. This is used to calculate the concentration needed to reduce the magnitude of the control value by 50% (IC50 value). The standard administration volume is […]; the DMSO content in the bath solution corresponds to 0.1%.

[1] = tested on: recombinant guanylate cyclase reporter cell line; experiment: Effect on a recombinant guanylate cyclase reporter cell line; assay type: cell-based; conditions: recombinant guanylate cyclase reporter cell line (Wunder et al. 2005)
Description: B-2. Effect on a Recombinant Guanylate Cyclase Reporter Cell Line
The cellular action of the inventive compounds is determined on a recombinant guanylate cyclase reporter cell line as described in F. Wunder et al., Anal. Biochem. 339, 104-112 (2005).

Nc1nc(-c2nn(Cc3ccccc3F)c3ncccc23)nc2c1C1(CCOC1)C(=O)N2 (stereo not drawn) [Example 4, 4′-amino-2′-[1-(2-fluorobenzyl)-1H-pyrazolo[3,4-b]pyridin-3-yl]-4,5-dihydrospiro[furan-3,5′-pyrrolo[2,3-d]pyrimidine]-6′(7′H)-one] was tested. Which IC50 (rabbit aorta rings) did it give?
Its IC50 is 24 nM.

And the “MEC (minimal effective concentration)” value [1]?
Its value is 0.003 µM.

What does the source list for CC1(C)C(=O)Nc2nc(-c3nn(Cc4ccccc4F)c4ncccc34)nc(N)c21 [Example 2, 4-amino-2-[1-(2-fluorobenzyl)-1H-pyrazolo[3,4-b]pyridin-3-yl]-5,5-dimethyl-5,7-dihydro-6H-pyrrolo[2,3-d]pyrimidin-6-one]?
IC50 (rabbit aorta rings): 48 nM; MEC (minimal effective concentration) [1]: 0.001 µM

What does the source list for CC1(C)C(=O)Nc2nc(-c3nn(Cc4ccccc4F)c4ncc(F)cc34)nc(N)c21 [Example 3, 4-amino-2-[5-fluoro-1-(2-fluorobenzyl)-1H-pyrazolo[3,4-b]pyridin-3-yl]-5,5-dimethyl-5,7-dihydro-6H-pyrrolo[2,3-d]pyrimidin-6-one]?
IC50 (rabbit aorta rings): 9.3 nM; MEC (minimal effective concentration) [1]: 0.001 µM
